By EC50 is commonly meant the concentration that produces a half-maximal response.

Some results are limits rather than exact numbers.

In the assay the target is T1, S-ribosylhomocysteine lyase (Vibrio harveyi, UniProt B0LUE4).
T1 sequence (B0LUE4 whole entry): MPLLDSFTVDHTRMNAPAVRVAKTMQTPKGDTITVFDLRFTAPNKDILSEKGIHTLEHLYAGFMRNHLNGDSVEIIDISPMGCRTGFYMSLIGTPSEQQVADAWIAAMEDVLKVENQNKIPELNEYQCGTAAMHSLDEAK
In words: Vibrio harveyi growth inhibition, confirmation, counter-screen for AI-2 quorum sensing modulator project, absorbance, dose retest (AID 2725). A general note: Counterscreens check selectivity or assay interference.
`C=Cn1c(C(=O)O)ccc1-c1ccc(CC)cc1` had an EC50 above 160 µM.

The compound `COc1cc(NC(=O)CN2C(=O)NC(c3ccccc3)(c3ccccc3)C2=O)cc(OC)c1` [MLS001176525] displayed an EC50 of 13.7 µM.

`CCc1ccc(S(=O)(=O)Nc2ccc(Br)cn2)cc1` [MLS001211346] came in with an EC50 above 160 µM.

In turn, `CCCc1ccc(S(=O)(=O)N(C)S(=O)(=O)c2ccc(F)cc2)cc1` [N-(4-fluorophenyl)sulfonyl-N-methyl-4-propylbenzenesulfonamide] registered an EC50 of 4.55 µM.

On to `CN(C)S(=O)(=O)c1ccc(NC(=S)NC(=O)Cc2ccccc2)cc1` [N-[[4-(dimethylsulfamoyl)phenyl]carbamothioyl]-2-phenyl-ethanamide], for which the EC50 was above 160 µM.

Regarding `Cc1cccc(NS(=O)(=O)c2ccc(Oc3ccccc3)cc2)n1` [SMR000071466], the EC50 was above 160 µM.

On to `Cn1cnc(S(=O)(=O)Nc2ccc(OC(F)(F)F)cc2)c1` [SMR000314513], for which the EC50 was above 160 µM.

The values are drawn from BindingDB's records for doi:10.7270/Q2T72FW8 (Broad Institute, 2010).
